The text below walks through data of patent publication US11524966B1 (Valo Early Discovery, Inc., priority 2017, dated 2022).

The assay concerns the target T1, USP28 (USP28-5(1-1077)-TEV-6*His; LifeSensors) (Homo sapiens, UniProt Q96RU2).
T1 construct: construct USP28 (USP28-5(1-1077)-TEV-6*His; LifeSensors); TEV cleavage site (C); 6xHis (C); purchased LifeSensors
T1 sequence (Q96RU2 1-1077): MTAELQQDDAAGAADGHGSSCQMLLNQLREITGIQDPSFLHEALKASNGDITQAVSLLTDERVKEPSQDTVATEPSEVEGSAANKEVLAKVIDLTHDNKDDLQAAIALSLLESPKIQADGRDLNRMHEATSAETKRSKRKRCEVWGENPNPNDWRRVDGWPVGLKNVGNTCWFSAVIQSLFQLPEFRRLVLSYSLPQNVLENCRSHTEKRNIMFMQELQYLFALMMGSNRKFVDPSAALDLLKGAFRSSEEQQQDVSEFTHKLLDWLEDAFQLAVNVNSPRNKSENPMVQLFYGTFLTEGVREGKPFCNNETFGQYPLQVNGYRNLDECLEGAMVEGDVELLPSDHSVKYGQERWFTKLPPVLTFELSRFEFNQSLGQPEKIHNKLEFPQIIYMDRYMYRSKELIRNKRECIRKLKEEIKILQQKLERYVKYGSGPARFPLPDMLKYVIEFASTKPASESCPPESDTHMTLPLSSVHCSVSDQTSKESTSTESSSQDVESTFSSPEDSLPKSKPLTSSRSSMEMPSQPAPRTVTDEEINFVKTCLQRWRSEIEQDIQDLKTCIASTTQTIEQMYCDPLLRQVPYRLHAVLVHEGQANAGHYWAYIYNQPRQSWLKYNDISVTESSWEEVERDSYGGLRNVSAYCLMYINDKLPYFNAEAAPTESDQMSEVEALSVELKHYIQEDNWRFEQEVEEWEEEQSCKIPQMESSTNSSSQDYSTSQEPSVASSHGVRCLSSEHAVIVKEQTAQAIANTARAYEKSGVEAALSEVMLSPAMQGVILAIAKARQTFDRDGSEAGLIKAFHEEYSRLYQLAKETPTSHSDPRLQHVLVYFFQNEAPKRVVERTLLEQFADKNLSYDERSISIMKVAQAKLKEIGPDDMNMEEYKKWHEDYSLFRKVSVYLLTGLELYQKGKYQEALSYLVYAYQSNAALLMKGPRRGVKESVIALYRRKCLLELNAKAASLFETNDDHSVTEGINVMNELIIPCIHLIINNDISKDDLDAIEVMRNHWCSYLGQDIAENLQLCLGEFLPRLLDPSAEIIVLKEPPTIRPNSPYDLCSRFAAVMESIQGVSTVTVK
Briefly: Ubiquitin-Rhodamine 110 Assay for USP28 Activity, Example A-1(b). Type of assay: biochemical. As to conditions: Ubiquitin-Rhodamine 110 assay, Example A-1(b). Put shortly: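 Single-point screening used 10 μM compound with 90 min room-temperature incubation; follow-up dose-responses (25 μM top, 3-fold) used 75 pM USP28 1-1077 construct, 30 min compound preincubation, 25 nM Ub-Rh110, 20 min reaction, citric acid quench. Rh110 fluorescence normalised to no-enzyme and DMSO controls; IC50 from 4-parameter logistic fit.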
As to `C[C@H]1CCc2cc(C(=O)N[C@H]3COc4cc(N5CC6CCC(C5)N6)ccc4C3)cnc2N1` [Example 73, (7S)-N-((3R)-7-(3,8-diazabicyclo[3.2.1]octan-3-yl)chroman-3-yl)-7-methyl-5,6,7,8-tetrahydro-1,8-naphthyridine-3-carboxamide], the “USP28 A-1(b) IC50 range” value is listed as “+ (>2 μM)”.

`O=C(N[C@H]1COc2cc(N3CCNCC3)ccc2C1)c1cnc2c(c1)CC[C@@H]2O` [Example 58, (S)-7-hydroxy-N-((R )-7-(piperazin-1-yl)chroman-3-yl)-6,7-dihydro-5H-cyclopenta[b]pyridine-3-carboxamide]: the “USP28 A-1(b) IC50 range” value is “+ (>2 μM)”.

For `O=C(N[C@H]1COc2cc(N3CCNCC3)ccc2C1)c1cnc2c(c1)CC[C@H]2O` [Example 57, (R)-7-hydroxy-N-((R)-7-(piperazin-1-yl)chroman-3-yl)-6,7-dihydro-5H-cyclopenta[b]pyridine-3-carboxamide], the “USP28 A-1(b) IC50 range” value is recorded as “+ (>2 μM)”. With `Cc1cnc2c(N)c(C(=O)N[C@H]3COc4c(C#N)c(N5CCNCC5)cc(F)c4C3)sc2n1` [Example 60, (R)-7-amino-N-(8-cyano-5-fluoro-7-(piperazin-1-yl)chroman-3-yl)-3-methylthieno[2,3-b]pyrazine-6-carboxamide], the “USP28 A-1(b) IC50 range” value is recorded as “++ (0.2-2 μM)”.
